Results from patent publication US20160251403A1, “PEPTIDE COMBINATIONS AND USES THEREOF IN TREATING DUST MITE ALLERGY” (ALK-ABELLO A/S, priority 2013, published 2016).
Values belong to the compound of their own block, whether it stands above or below them. No end group written: not given here.

What was measured:
DRB1_1201 = DRB1_1201 (Homo sapiens, UniProt P01903+P01911, A100R/A169T/D57E/D86V/F55L/H45Y/K41T/L162R/M171V/P40S/Q125H/Q178H/Q39Y/Q99D/R42G/S66L/T262R/V114A/V67L/W38E/Y59H/Y61H/Y89S); assay: Competitive MHC class II binding assay, DRB1_1201
DPA10103-DPB10401 = target: T1, DPA10103-DPB10401 (Homo sapiens, UniProt P04440+P20036); assay: Competitive MHC class II binding assay, DPA10103-DPB10401
T1 sequence (P20036 29-260): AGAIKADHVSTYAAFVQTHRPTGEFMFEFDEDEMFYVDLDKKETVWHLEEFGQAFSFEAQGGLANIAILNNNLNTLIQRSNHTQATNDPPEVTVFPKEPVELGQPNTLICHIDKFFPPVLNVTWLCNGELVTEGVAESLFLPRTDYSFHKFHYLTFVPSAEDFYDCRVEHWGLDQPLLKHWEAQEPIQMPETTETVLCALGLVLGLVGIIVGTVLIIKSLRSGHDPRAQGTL
T1 sequence (P04440 30-258): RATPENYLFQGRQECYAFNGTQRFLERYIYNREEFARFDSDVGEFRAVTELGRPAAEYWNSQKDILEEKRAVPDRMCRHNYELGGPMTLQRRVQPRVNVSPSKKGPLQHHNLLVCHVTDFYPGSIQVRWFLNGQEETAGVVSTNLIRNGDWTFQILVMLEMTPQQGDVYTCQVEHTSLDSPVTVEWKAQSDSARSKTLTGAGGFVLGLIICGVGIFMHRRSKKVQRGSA

[1] = system: allergen specific T cells; assay: T cell proliferation assay (72 h) with allergen-specific T cell lines from house dust mite allergic donors; % responders; type: cell-based, human; settings: FIGS. 9b, 9c; subset of 22 donors having about 88% worldwide HLA Class II coverage
Description: This example includes a description of how peptides (singly or in combination) were screened for T cell reactivity in the donor population.
The T cell reactivity to peptides disclosed herein was determined either by measuring T cell proliferation of T cell lines specific to the allergens investigated or by measuring the cytokine production of allergen-specific T cells obtained from cultured PBMCs.
TCL specific to the six allergens rproDer p 1, rproDer f 1, rDer p 2, rDer f 2, Der p 4 and Der p 7, respectively or specific to the combination of all six allergens were established from peripheral blood mononuclear cells (PBMCs) of each donor.
PBMCs were isolated from freshly drawn heparinized blood by gradient centrifugation on lymphoprep (Nycomed, Norway), washed twice and re-suspended in RPMI 1640 medium with HEPES and ultraglutamine (Cambrex, Belgium) supplemented with 5% v/v AB-serum (Cambrex, Belgium), 100 units/ml penicillin, and 0.1 mg/ml streptomycin (Sigma, St Louis, USA) (referred to as AB-medium). Isolated PBMCs were CD8 depleted by Macs magnetic depletion according to the manufacturer's instructions (Miltenyi Biotec, Bergisch Gladbach, Germany). […]
The capacity of the different peptides to stimulate allergen specific T cells is analyzed in a standard 72 h T cell proliferation assay, as described in Henmar H et al., Clin Exp Immunol 2008; […]):316-23. […]

DPA10201-DPB11401 = assay: Competitive MHC class II binding assay, DPA10201-DPB11401; settings: read-out: HLA-DPA10201-DPB11401; positive binding at cutoff 1000 nM
DRB1_0301 = DRB1_0301 (Homo sapiens, UniProt P01903+P01911, A100K/A102G/A103R/A169T/F55Y/I96L/K41T/L162R/M171V/P40S/Q125H/Q178H/Q39Y/R42S/S66N/T106N/T262R/W38E/Y61H); assay: Competitive MHC class II binding assay, DRB1_0301

- IC50 (DRB1_1201): < 1000 nM
Compound: CC[C@H](C)[C@H](NC(=O)CNC(=O)[C@@H](NC(=O)[C@@H](NC(=O)[C@@H](NC(=O)[C@H](C)NC(=O)[C@@H](NC(=O)[C@H](C)NC(=O)[C@H](CO)NC(=O)[C@H](Cc1c[nH]cn1)NC(=O)[C@@H](NC(=O)[C@H](CCC(N)=O)NC(=O)[C@H](C)NC(=O)[C@H](CC(C)C)NC(=O)[C@H](C)NC(=O)[C@H](CCC(=O)O)NC(=O)[C@@H](N)CCCNC(=N)N)[C@@H](C)O)[C@@H](C)CC)C(C)C)[C@@H](C)CC)[C@@H](C)CC)C(=O)N[C@@H](CCCCN)C(=O)N[C@@H](CC(=O)O)C(=O)N[C@@H](CC(C)C)C(=O)N[C@@H](CC(=O)O)C(=O)N[C@@H](C)C(=O)O [pep-130]

- IC50 (DPA10103-DPB10401): < 1000 nM
Compound: DNGYGYFAANIDLMMIEE [pep-010]

- IC50 (DPA10201-DPB11401): < 1000 nM
- IC50 (DRB1_0301): < 1000 nM
Compound: LVGDNGVLASAIATHAKIRD [pep-110]
- fraction of donors with T cell response (% donor response) [1]: higher percentage donor response than the other peptides

Compound: LVKGQQYDIKYTWNVPKIAPK [pep-131]
- fraction of donors with T cell response (% donor response) [1]: higher percentage donor response than the other peptides
